Test results from ChEMBL document CHEMBL5143557, “Synthesis and biological evaluation of 3β-O-neoglycosides of caudatin and its analogues as potential anticancer agents” (Bioorg Med Chem, 2022).

Legend:
HCT-116 = assay: Antiproliferative activity against human HCT-116 cells after 48 hrs by MTT assay; format: functional, cell-based; settings: HCT-116, 48 h
MCF7 = assay: Antiproliferative activity against human MCF7 cells after 48 hrs by MTT assay; format: functional, cell-based; settings: MCF7, 48 h
HeLa = assay: Antiproliferative activity against human HeLa cells after 48 hrs by MTT assay; format: functional, cell-based
HepG2 [1] = assay: Cell cycle arrest in human HepG2 cells assessed as number of cells at G2 phase at 20 uM after 48 hrs by flow cytometry (reference value: 16.28%); format: functional
HepG2 [2] = assay: Induction of apoptosis in human HepG2 cells assessed as necrotic cells at 20 uM measured after 48 hrs by annexin-V and PI staining based flow cytometry (reference value: 0.363%); format: functional
HepG2 [3] = assay: Cell cycle arrest in human HepG2 cells assessed as number of cells at G2 phase at 5 uM after 48 hrs by flow cytometry (reference value: 16.28%); format: functional
HepG2 [4] = assay: Cell cycle arrest in human HepG2 cells assessed as number of cells at G2 phase at 10 uM after 48 hrs by flow cytometry (reference value: 16.28%); format: functional
HepG2 [5] = assay: Induction of apoptosis in human HepG2 cells assessed as late apoptotic cells at 5 uM measured after 48 hrs by annexin-V and PI staining based flow cytometry (reference value: 4.52%); format: functional
HepG2 [6] = assay: Induction of apoptosis in human HepG2 cells assessed as early apoptotic cells at 20 uM measured after 48 hrs by annexin-V and PI staining based flow cytometry (reference value: 4.11%); format: functional
HepG2 [7] = assay: Cell cycle arrest in human HepG2 cells assessed as number of cells at S phase at 5 uM after 48 hrs by flow cytometry (reference value: 24.31%); format: functional
HepG2 [8] = assay: Cell cycle arrest in human HepG2 cells assessed as number of cells at S phase at 10 uM after 48 hrs by flow cytometry (reference value: 24.31%); format: functional
HepG2 [9] = assay: Cell cycle arrest in human HepG2 cells assessed as number of cells at S phase at 20 uM after 48 hrs by flow cytometry (reference value: 24.31%); format: functional
HepG2 [10] = assay: Induction of apoptosis in human HepG2 cells assessed as necrotic cells at 5 uM measured after 48 hrs by annexin-V and PI staining based flow cytometry (reference value: 0.363%); format: functional
HepG2 [11] = assay: Induction of apoptosis in human HepG2 cells assessed as live cells at 20 uM measured after 48 hrs by annexin-V and PI staining based flow cytometry (reference value: 91%); format: functional
HepG2 [12] = assay: Induction of apoptosis in human HepG2 cells assessed as live cells at 10 uM measured after 48 hrs by annexin-V and PI staining based flow cytometry (reference value: 91%); format: functional
HepG2 [13] = assay: Induction of apoptosis in human HepG2 cells assessed as necrotic cells at 10 uM measured after 48 hrs by annexin-V and PI staining based flow cytometry (reference value: 0.363%); format: functional
HepG2 [14] = assay: Antiproliferative activity against human HepG2 cells after 48 hrs by MTT assay; format: functional, cell-based; settings: HepG2, 48 h
HepG2 [15] = assay: Induction of apoptosis in human HepG2 cells assessed as live cells at 5 uM measured after 48 hrs by annexin-V and PI staining based flow cytometry (reference value: 91%); format: functional
HepG2 [16] = assay: Induction of apoptosis in human HepG2 cells assessed as early apoptotic cells at 10 uM measured after 48 hrs by annexin-V and PI staining based flow cytometry (reference value: 4.11%); format: functional
HepG2 [17] = assay: Induction of apoptosis in human HepG2 cells assessed as early apoptotic cells at 5 uM measured after 48 hrs by annexin-V and PI staining based flow cytometry (reference value: 4.11%); format: functional
HepG2 [18] = assay: Induction of apoptosis in human HepG2 cells assessed as late apoptotic cells at 10 uM measured after 48 hrs by annexin-V and PI staining based flow cytometry (reference value: 4.52%); format: functional
HepG2 [19] = assay: Cell cycle arrest in human HepG2 cells assessed as number of cells at G1 phase at 5 uM after 48 hrs by flow cytometry (reference value: 57.68%); format: functional
HepG2 [20] = assay: Induction of apoptosis in human HepG2 cells assessed as late apoptotic cells at 20 uM measured after 48 hrs by annexin-V and PI staining based flow cytometry (reference value: 4.52%); format: functional
HepG2 [21] = assay: Cell cycle arrest in human HepG2 cells assessed as number of cells at G1 phase at 10 uM after 48 hrs by flow cytometry (reference value: 57.68%); format: functional
HepG2 [22] = assay: Cell cycle arrest in human HepG2 cells assessed as number of cells at G1 phase at 20 uM after 48 hrs by flow cytometry (reference value: 57.68%); format: functional

Q: `CC(=O)OC[C@@H]1O[C@H](O[C@H]2CC[C@@]3(C)C(=CC[C@]4(O)[C@@H]3C[C@@H](OC(=O)/C=C(\C)C(C)C)[C@@]3(C)[C@]4(O)CC[C@@]3(O)C(C)=O)C2)[C@@H](OC(C)=O)[C@H](OC(C)=O)[C@H]1OC(C)=O` was tested. Which IC50 (HCT-116) did it give?
A: Its IC50 is 5.64 µM.

Q: And the IC50 (MCF7)?
A: The IC50 was 9.04 µM.

Q: And the IC50 (HeLa)?
A: Its IC50 is 7.6 µM.

Q: And the Activity (HepG2 [1])?
A: The Activity was 15.99%.

Q: And the Activity (HepG2 [2])?
A: The Activity was 0.184%.

Q: And the Activity (HepG2 [3])?
A: The Activity was 16.95%.

Q: And the Activity (HepG2 [4])?
A: The Activity was 15.75%.

Q: And the Activity (HepG2 [5])?
A: The Activity was 5.07%.

Q: And the Activity (HepG2 [6])?
A: Its Activity is 76.5%.

Q: What about the Activity (HepG2 [7]) of the same compound?
A: The Activity was 28.72%.

Q: And the Activity (HepG2 [8])?
A: The Activity was 34.6%.

Q: What about the Activity (HepG2 [9]) of the same compound?
A: The Activity was 38.82%.

Q: And the Activity (HepG2 [10])?
A: The Activity was 0.068%.

Q: And the Activity (HepG2 [11])?
A: Its Activity is 18%.

Q: What about the Activity (HepG2 [12]) of the same compound?
A: The Activity was 57%.

Q: And the Activity (HepG2 [13])?
A: The Activity was 0.096%.

Q: And the IC50 (HepG2 [14])?
A: The IC50 was 3.11 µM.

Q: And the Activity (HepG2 [15])?
A: Its Activity is 83.5%.

Q: What about the Activity (HepG2 [16]) of the same compound?
A: Its Activity is 35.6%.

Q: And the Activity (HepG2 [17])?
A: The Activity was 11.3%.

Q: And the Activity (HepG2 [18])?
A: The Activity was 7.26%.

Q: What about the Activity (HepG2 [19]) of the same compound?
A: Its Activity is 51.38%.

Q: What about the Activity (HepG2 [20]) of the same compound?
A: The Activity was 5.34%.

Q: And the Activity (HepG2 [21])?
A: The Activity was 46.89%.

Q: And the Activity (HepG2 [22])?
A: The Activity was 41.76%.

Q: Which results are given for `CC(=O)OC[C@H]1O[C@@H](O[C@H]2CC[C@@]3(C)C(=CC[C@]4(O)[C@@H]3C[C@@H](OC(=O)/C=C(\C)C(C)C)[C@@]3(C)[C@]4(O)CC[C@@]3(O)C(C)=O)C2)[C@H](OC(C)=O)[C@@H](OC(C)=O)[C@@H]1OC(C)=O`?
A: IC50 (HCT-116): 26.6 µM; IC50 (MCF7): 93.4 µM; IC50 (HeLa): > 100 µM; IC50 (HepG2 [14]): 65.8 µM

Q: Which IC50 (HCT-116) does the source give for `CC(=O)[C@]1(O)CC[C@@]2(O)[C@]1(C)[C@H](OC(=O)/C=C(\C)C(C)C)C[C@@H]1[C@@]3(C)CC[C@H](O[C@@H]4OC[C@H](O)[C@H](O)[C@H]4O)CC3=CC[C@]12O` here?
A: Its IC50 is > 100 µM.

Q: What about the IC50 (MCF7) of the same compound?
A: Its IC50 is > 100 µM.

Q: What about the IC50 (HeLa) of the same compound?
A: Its IC50 is > 100 µM.

Q: What about the IC50 (HepG2 [14]) of the same compound?
A: Its IC50 is 87.5 µM.

Q: `CC(=O)[C@]1(O)CC[C@@]2(O)[C@]1(C)[C@H](OC(=O)/C=C(\C)C(C)C)C[C@@H]1[C@@]3(C)CC[C@H](O[C@H]4C[C@H](O)[C@H](O)CO4)CC3=CC[C@]12O` was tested. Which IC50 (HCT-116) did it give?
A: Its IC50 is 36.8 µM.

Q: What about the IC50 (MCF7) of the same compound?
A: Its IC50 is 93 µM.

Q: And the IC50 (HeLa)?
A: Its IC50 is 86.5 µM.

Q: What about the IC50 (HepG2 [14]) of the same compound?
A: The IC50 was 39.8 µM.
